Patent US9212180B2 (priority 2013, dated 2015)

Experiments:
[1] = system: MLL-AF9 transformed murine bone marrow cells; test: Colony forming assay in MLL-AF9 transformed murine bone marrow cells; assay type: cell-based; details: FIG. 10
[2] = system: MLL-AF9 transformed murine bone marrow cells; test: Proliferation of MLL-AF9 transformed murine bone marrow cells; assay type: cell-based; details: FIG. 2
[3] = system: MLL-ENL transformed murine bone marrow cells; test: Proliferation of MLL-ENL transformed murine bone marrow cells; assay type: cell-based; details: FIG. 2
Kasumi-1 = test: Apoptosis in control cell line Kasumi-1 without MLL translocation; assay type: cell-based; details: Kasumi-1 control cell line without MLL translocation; FIG. 8B
MLL leukemia cells = test: Cell cycle arrest in MLL leukemia cells; assay type: cell-based; details: different MLL leukemia cells; FIG. 9
MV4;11 [4] = test: Apoptosis in human MLL leukemia cell line MV4;11; assay type: cell-based; details: FIG. 8A
ML-2 = test: Apoptosis in human MLL leukemia cell line ML-2; assay type: cell-based; details: FIG. 8A
MV4;11 [5] = test: Differentiation of human MLL leukemia cell line MV4;11; assay type: cell-based; details: FIG. 6, FIG. 7
KOPN8 = test: Differentiation of human MLL leukemia cell line KOPN8; assay type: cell-based; details: FIG. 7
MI-2 = test: Differentiation of human MLL leukemia cell line MI-2; assay type: cell-based; details: FIG. 7
[6] = system: MLL-AF9 transformed murine bone marrow cells; test: Differentiation of MLL-AF9 transformed murine bone marrow cells; assay type: cell-based; details: for differentiation as assessed by increased expression of the CD11b differentiation marker: FIG. 4; for differentiation as assessed by significant change in morphology: FIG. 5
Hoxa9 and Meis1 = test: Expression level of Hoxa9 and Meis1 in MLL-AF9 transformed bone marrow cells; assay type: cell-based, murine; details: FIG. 1B
MonoMac-6 = test: Differentiation of human MLL leukemia cell line MonoMac-6; assay type: cell-based; details: FIG. 7

Structure (SMILES) | transforming properties of MLL-AF9 fusion protein (colony number, morphology of colonies) [1] | inhibition of proliferation [2] | inhibition of proliferation [3] | apoptosis (Kasumi-1) | cell cycle arrest (MLL leukemia cells) | apoptosis (MV4;11 [4]) | apoptosis (ML-2) | differentiation (CD11b expression and morphology change) (MV4;11 [5]) | differentiation (change in the CD11b expression and change in morphology of cells) (KOPN8) | differentiation (change in the CD11b expression and change in morphology of cells) (MI-2) | differentiation as assessed by increased expression of the CD11b differentiation marker [6] | differentiation as assessed by significant change in morphology [6] | expression level of Hoxa9 and Meis1 (Hoxa9 and Meis1) | differentiation (change in the CD11b expression and change in morphology of cells) (MonoMac-6)
N#Cc1ccc(OCCCN2CCC(C(O)c3ccccc3)CC2)cc1 (stereo not shown) [B76 (NC)] | but not NC reduce transforming properties | No such effect | No such effect | No effect on apoptosis | No such effect | but not the control compound (NC) induce apoptosis | but not the control compound (NC) induce apoptosis | – | – | – | – | – | – | –
N#Cc1ccc(OCCCN2CCC([C@](O)(c3ccccc3)C3CCCC3)CC2)cc1 [Compound B19] | reduce transforming properties | – | – | No effect on apoptosis | induce cell cycle arrest | induce apoptosis | induce apoptosis | induce differentiation | induce differentiation | induce differentiation | induces differentiation | induces differentiation | strongly downregulates | induce differentiation
N#Cc1ccc(OCCCN2CCC([C@@](O)(c3ccccc3)C3CCCC3)CC2)cc1 [Compound B20] | reduce transforming properties | – | – | No effect on apoptosis | induce cell cycle arrest | induce apoptosis | induce apoptosis | induce differentiation | induce differentiation | induce differentiation | induces differentiation | induces differentiation | strongly downregulates | induce differentiation
